According to PMC7767381, “Exploring the Anti-Cancer Mechanism of Novel 3,4′-Substituted Diaryl Guanidinium Derivatives” (Pharmaceuticals, 2020):
“Also recorded” adds a separate entry of the source.

What was measured:
HeLa cells = assay: alamarBlue cell viability assay, HeLa; type: cell-based; details: Homo sapiens, 72 h, read-out: HeLa IC50 ± SEM
Excerpt: Cell viability and proliferation assays were used to evaluate the in vitro cytotoxicity of all synthesised compounds in a variety of different cancer cell lines using the alamarBlue® viability assay and the results are presented in Table 1 and Table 2. The sensitivity of cancer cells to drugs can often be compromised by PIK3CA, Ras and BRAF mutations. To determine whether such mutations are critical to the efficacy of our new compounds we tested them in a range of cancerous cell lines expressing different mutations. Firstly, we used the HL-60 (human promyelocytic leukaemia, NRas mutated) cell line for general cytotoxicity screening of all compounds. […] Lastly, toxicity against MCF-10A, which is a non-tumorigenic epithelial cell line, was also assessed for one of the most promising compounds (4). The graphs representing the viability results with the HL-60, MCF-7, HeLa, HCT-116, and HKH-2 cancer cell lines for compound 1 and derivatives 2, 3, and 4 are shown in Figures S7–S10 (ESI).
Cells were counted and seeded in 96-well plates at a density of 2 × 10^5 cells/mL for HL-60, 2.5 × 10^4 cells/mL for MCF-7, MCF10A and HeLa, 1 × 10^5 cells/mL for HCT116 and HKH-2, all of them in their respective media. The 96-well plates were then treated with a 1:100 dilution of stock concentrations of drugs or EtOH (1% v/v)/DMSO (0.1% v/v) as vehicle control in triplicate. Three blank wells containing 200 µL RPMI with no cells were also set-up as blanks. After a 72 h incubation, 20 µL of alamarBlue was added to each well. The plates were incubated in darkness at 37 °C for 4–5 h using a Molecular Devices microplate reader, the fluorescence (F) was then read at an excitation wavelength of 544 nm and an emission wavelength of 590 nm. Cell viability was then determined by subtracting the mean blank fluorescence (Fb) from the treated sample fluorescence (Fs) and expressing this as a percentage of the fluorescence of the blanked vehicle control (Fc). […] The results were then plotted as a nonlinear regression, sigmoidal dose-response curves on Prism, from which the IC50 value for each drug was determined.
The MCF-7 (human breast tumour) cell line was obtained from Prof. Mary Meegan, School of Pharmacy, TCD. It was maintained in Roswell Park Memorial Institute (RPMI) 1640 medium with stable glutamate (GlutaMax I) supplemented with 10% (v/v) fetal bovine serum (FBS), 1% (v/v) penicillin/ streptomycin (pen-strep) and 2 mM L-glutamine.
The HeLa (human epitheloid cervix carcinoma) cell line was obtained from Prof. Thorfinnur Gunnlaugsson, School of Chemistry TCD. It was maintainedin Dulbecco's Modified Eagle's Medium (DMEM) supplemented with 10% (v/v) fetal bovine serum (FBS) and 1%(v/v) penicillin/ streptomycin (pen-strep).
The HCT116and HKH-2 (human colon cancer cells) cell lines were obtained from Prof. James Murray, School of Biochemistry and Immunology TCD. They were maintainedin Dulbecco's Modified Eagle's Medium (DMEM) supplemented with 10% (v/v) fetal bovine serum (FBS), 1% (v/v) penicillin/ streptomycin (pen-strep), 1% (v/v) sodium pyruvate (NaPyr), 1% (v/v) L-glutamine (L-Glu) and, only for HKH-2, 0.6 mg/mL geneticine (G418).
MCF-10A (human breast epithelial) cell line was obtained from Prof. Mary Meegan, School of Pharmacy, TCD. […]
Cells were counted and seeded in 96 well plates at a density of 2 × 10^5 cells/mL for HL-60, 2.5× 10^4 cells/mL for MCF-7, MCF10A and HeLa, 1 × 10^5 cells/mL for HCT116 and HKH-2, all of them in their respective media. […]

[1] = test system: ERK phosphorylation (MAPK/ERK pathway); assay: Western immunoblot of ERK phosphorylation in HL-60 extracts; type: cell-based, human; details: HL-60, 5 µM, 16 h
Protocol: Thus, using Western immunoblot analysis of HL-60 extracts, we investigated the expression and phosphorylation levels of ERK (as an indication of ERK activation), which is the downstream effector of the Ras/BRAF signalling pathway (Figure 6).
HL60s were seeded in T25 flasks at 50 × 10^4 cells/mL and cells were treated with either vehicle [0.5% EtOH (v/v)], 1–4, 9 or 52 (5 µM), as well as 1 (10 µM as reported). After 16 h, cells were collected and washed with PBS. Cell pellets were re-suspended in cold cell lysis buffer (radio-immunoprecipitation assay buffer) supplemented with 1% phosphatase inhibitor cocktail 2 and 3 (Sigma) and 10% protease inhibitor (Roche). Cells were lysed for 30 min on ice. Protein concentration was then determined by BCA assay. Lysates were boiled with Laemmli sample buffer [Tris-HCL 50 mM (pH 6.7), glycerol 10% (w/v), sodium dodecyl sulphate 2% (w/v), bromophenol blue 0.02% (w/v)] containing DTT […] for 10 min at 90 °C. Moreover, 20 µg of lysates were resolved by sodium dodecyl sulphate polyacrylamide gel electrophoresis (SDS-PAGE) and transferred onto PVDF transfer membrane (EMD Millipore). Membranes were blocked with 5% non-fat milk and probed with primary antibodies for ERK and phospho-ERK (Cell Signalling). Anti-GAPDH was used as a loading control (Calbiochem).
Figure 6 Western immunoblot of HL-60 cell extracts following incubation with compounds 2, 3, 4, 9, 52 and 1 (as a control). HL60 cells were seeded at 2 × 10^5 cells/mL and were treated with either vehicle [0.5% EtOH (v/v)], compounds 52, 2, 9, 3 and 4 (5 µM) or compound 1 (5 and (*) 10 µM, as in reference) for 16 h. Cells were lysed and equal amounts of protein were loaded and separated on 15% SDS-PAGE gels, transferred to PVDF membrane and probed with antibodies against total and phosphorylated ERK. Anti-GAPDH was used as a loading control. Results are representative of 2 independent experiments.
HL-60 cells were seeded in T25 flasks at 50 x10^4 cells/mL and treated with either vehicle [0.5% […]
After 16 hours, cells were […]
collected and washed with PBS. Cell pellets were re-suspended in cold cell lysis buffer (radio-immunoprecipitation assay buffer) supplemented with 1% phosphatase inhibitor cocktail 2 and 3 (Sigma) and 10% protease inhibitor (Roche). Cells were lysed for 30 minutes on ice.
Protein concentration was then determined by BCA assay. Lysates were boiled with laemmli sample buffer [Tris-HCL 50 mM (pH 6.7), glycerol 10% (w/v), sodium dodecyl sulphate 2% (w/v), bromophenol blue 0.02% (w/v)] containing DTT […] for 10 min. at 90 °C. Also 20 µg of lysates were resolved by sodium dodecyl sulphate polyacrylamide gel electrophoresis (SDS - PAGE) and transferred onto PVDF transfer membrane (EMD Millipore). Membranes were blocked with 5% non-fat milk and probed with primary antibodies for ERK and phospho-ERK (Cell Signaling). Anti-GAPDH was used as a loading control (Calbiochem).

Compound	IC50 (HeLa cells) [µM]	effect on ERK phosphorylation (Ras/BRAF pathway) [1]
Cl.N=C(N)Nc1ccc(Oc2cccc(Nc3ccc(Cl)c(C(F)(F)F)c3)c2)cn1 [Compound 4, 1-(5-(3-((4-Chloro-3-(trifluoromethyl)phenyl)amino)phenoxy)pyridin-2-yl)guanidine hydrochloride]	1.33 ± 0.08	do not appear to interfere with the Ras/BRAF signalling pathway; also recorded: do not act in the same way
Cl.Cl.N=C(N)Nc1ccc(Oc2cccc(NC(=N)Nc3ccc(Cl)c(C(F)(F)F)c3)c2)cn1 [Compound 2, 1-(4-Chloro-3-(trifluoromethyl)phenyl)-3-(3-((6-guanidinopyridin-3-yl)oxy)phenyl) guanidine dihydrochloride]	4.87 ± 0.27	inhibiting ERK phosphorylation; also recorded: abrogates ERK activation
Cl.N=C(N)Nc1ccc(Oc2cccc(Nc3ccc(Cl)c(C(F)(F)F)c3)c2)cc1 [Compound 3, 1-(4-(3-((4-Chloro-3-(trifluoromethyl)phenyl)amino)phenoxy)phenyl)guanidine hydrochloride]	4.33 ± 0.54	do not appear to interfere with the Ras/BRAF signalling pathway; also recorded: do not act in the same way
